Values quoted from earlier work, collected in patent US10206391B2, “Strobilurin formulations” (priority 2011, dated 2019).
In brackets after ≈: the same amount, converted by molar mass. Read-outs that look alike come from different tables or passages of the source.

Experiments:
[1] = not given; remark: listed apart in the source
[2] = not given; remark: listed apart in the source
[3] = not given; remark: listed apart in the source

## CC1(c2ccc(Oc3ccccc3)cc2)OC(=O)N(Nc2ccccc2)C1=O (centres unmarked) [Famoxadone, 3-anilino-5-methyl-5-(4-phenoxyphenyl)-1,3-oxazolidine-2,4-dione]
pH 7
  KOW logP: logP = 4.65
[1]; pH 5, 25° C.
  DT50 in water with light: 4.6 d (pH 5, 25° C.).
  DT50 in water with no light: 41 days
[1]; pH 7, 25° C.
  DT50 in water with no light: 2 days
[1]; pH 9, 25° C.
  DT50 in water with no light: 0.0646 d (pH 9) (25° C.); in water with light, DT50
[2]; pH 5
  DT50 for aqueous photolysis: 4.6 days
[2]; water, pH 7
  DT50 for aqueous photolysis: 1.9 days

## COC(=O)N(OC)c1ccccc1COc1ccn(-c2ccc(Cl)cc2)n1 [Pyraclostrobin, methyl N-{2-[1-(4-chlorophenyl)pyrazol-3-yloxymethyl]phenyl}(N-methoxy)carbamate]
[1]; pH 5-7, 25° C.
  Time stable: Stable >30 d (pH 5-7, 25° C.).
[2]; water, pH 7
  DT50 for aqueous photolysis: Photolysis DT50 in water 1.7 days, pH7
[3]; 20° C.
  Solubility in acetone: acetonitrile, dichloromethane and toluene >500 (all g/l
  Solubility in acetonitrile: acetonitrile, dichloromethane and toluene >500 (all g/l
  Solubility in dichloromethane: acetonitrile, dichloromethane and toluene >500 (all g/l
  Solubility in ethyl acetate: acetonitrile, dichloromethane and toluene >500 (all g/l
  Solubility in isopropanol: 30.0 mg/mL (≈ 77.4 mM)
  Solubility in methanol: methanol 100.8, acetone, ethyl acetate, g/l
  Solubility in n-heptane: 3.7 mg/mL (≈ 9.54 mM)
  Solubility in n-octanol (octanol): 24.2 mg/mL (≈ 62.4 mM)
  Solubility in olive oil: 28.0 mg/mL (≈ 72.2 mM)
  Solubility in toluene: acetonitrile, dichloromethane and toluene >500 (all g/l

## CNC(=O)/C(=N/OC)c1ccccc1COc1cc(C)ccc1C [Dimoxystrobin, (E)-2-(methoxyimino)-N-methyl-2-[α-(2,5-xylyloxy)-o-tolyl]acetamide]
plants; plant tissues
  Metabolic stability in plants and xylem systemicity (in words): metabolically sufficiently stable in plants and show a pronounced xylem systemicity
pH 6.5
  KOW logP: logP = 3.59
[1]; pH 4-9, 50° C.
  Time stable in aqueous solution: Stable >30 d in aqueous solution at pH 4-9, 50 °C
[2]; water, pH 7
  DT50 for aqueous photolysis: DT50 for aqueous photolysis 30 days, pH7
[3]; 20° C.
  Solubility in DMF: 200 to 250 mg/mL
  Solubility in acetone: 67 to 80 mg/mL
  Solubility in acetonitrile: 50 to 57 mg/mL
  Solubility in dichloromethane: > 250 mg/mL
  Solubility in ethyl acetate: 33 to 40 mg/mL
  Solubility in isopropanol: isopropanol, n-heptane, n-octanol and olive oil all <10 g/l
  Solubility in methanol: 20 to 25 mg/mL
  Solubility in n-heptane: isopropanol, n-heptane, n-octanol and olive oil all <10 g/l
  Solubility in n-octanol (octanol): isopropanol, n-heptane, n-octanol and olive oil all <10 g/l
  Solubility in olive oil: isopropanol, n-heptane, n-octanol and olive oil all <10 g/l
  Solubility in toluene: 20 to 25 mg/mL
[3]; pH 5.7, 20° C.
  Solubility in water: 0.0043 mg/mL (≈ 0.0132 mM)
[3]; pH 8.0, 20° C.
  Solubility in water: 0.0035 mg/mL (≈ 0.0107 mM)

## CO/N=C(/C(=O)OC)c1ccccc1CO/N=C(\C)c1cccc(C(F)(F)F)c1 [Trifloxystrobin, methyl(E)-methoxyimino-{(E)-α-[1-(α,α,α-trifluoro-m-tolyl)ethylideneaminooxy]-o-tolyl}acetate]
[1]; pH 5
  Stability to hydrolysis (in words): stable
[1]; pH 7, 20° C.
  Hydrolysis DT50: 11.4 w
[1]; pH 9, 20° C.
  Hydrolysis DT50: 27.1 h
[2]; pH 5
  DT50 for aqueous photolysis: 1.1 days
[2]; water, pH 7
  DT50 for aqueous photolysis: 2.7 days

## CO/C=C(/C(=O)OC)c1ccccc1COc1cccc(C(F)(F)F)n1 [Picoxystrobin, methyl(E)-3-methoxy-2-[2-(6-trifluoromethyl-2-pyridyloxymethyl)phenyl]acrylate]
plants; in vivo
  Metabolic stability in plants and xylem systemicity (in words): metabolically sufficiently stable in plants and show a pronounced xylem systemicity
[1]; pH 9, 50° C.
  DT50: ~15 days
[2]; water, pH 7
  DT50 for aqueous photolysis: DT50 for aqueous photolysis 21 days, pH7

## CNC(=O)/C(=N/OC)c1ccccc1CO/N=C(C)/C(=N/OC)C(/C)=N/OC [Orysastrobin, 2[(E)-methoxyimino]-2-[(3E,6E)-2-{5-[(E)-methoxyimino]-4,6-dimethyl-2,8-dioxa-3,7-diazanona-3,6-dienyl}phenyl]-N-methylacetamide]
20° C.
  KOW logP: logP = 2.36
[2]; water, pH 7
  DT50 for aqueous photolysis: Photolysis DT50 0.8 days, pH7
[3]; 20° C.
  Solubility in water: water 80.6 mg/l (20° C.).

## CO/N=C(/C(=O)OC)c1ccccc1COc1ccccc1C [Kresoxim-methyl, methyl(E)-methoxyimino[2-(o-tolyloxymethyl)phenyl]acetate]
[1]; pH 5, text wrapped over r19-r20 reads 'relatively stable at pH 5'
  Stability (in words): stable at pH 5.
[1]; pH 7
  Hydrolysis DT50: 816 h
[1]; pH 9
  Hydrolysis DT50: 7 h
[2]; water, pH 7
  DT50 for aqueous photolysis: Photolysis DT50 18.2 days, pH7

## CO/N=C(/C1=NOCCO1)c1ccccc1Oc1ncnc(Oc2ccccc2Cl)c1F [Fluxastrobin, (E)-{2-[6-(2-chlorophenoxy)-5-fluoropyrimidin-4-yloxy]phenyl}(5,6-dihydro-1,4,2-dioxazin-3-yl)methanone O-methyloxime]
plants; plant tissues
  Metabolic stability in plants and xylem systemicity (in words): metabolically sufficiently stable in plants and show a pronounced xylem systemicity
20° C.
  KOW logP: logP = 2.86
[1]; pH 4, 7 and 9, 50° C.
  Hydrolysis DT50: Hydrolysis DT50 >1 y (pH 4, 7 and 9, 50° C.);
[2]; sterile aqueous phosphate buffer, pH 7
  Photolytic stability DT50: DT50 3.8-4.1 days in sterile aqueous phosphate
[2]; under solar summer conditions, Phoenix AZ, USA in June
  Photolytic stability DT50: buffer, pH 7; 19- 22 days under solar summer
[3]; 20° C.
  Solubility in dichloromethane: > 250 mg/mL
  Solubility in isopropanol: 6.7 mg/mL (≈ 14.6 mM)
  Solubility in n-heptane: 0.04 mg/mL (≈ 0.0872 mM)
  Solubility in xylene: 38.1 mg/mL (≈ 83 mM)
[3]; pH 7, 20° C.
  Solubility in water: 0.00229 mg/mL (≈ 0.00499 mM)
[3]; unbuffered, 20° C.
  Solubility in water: 0.00256 mg/mL (≈ 0.00558 mM)
